# Measured values taken from US7081485B2, “Non-volatile dental compositions containing multifunctional acrylate compounds and lacking an oxygen-inhibited layer” (Bisco, Inc., priority 2002, dated 2006).
# Test: Initiator absorptivity, 400–500 nm in acetonitrile
# Format: physicochemical
# Settings: normalized by mass
# Protocol: The absorptivity is the absorbance in the range of 400–500 nm in acetonitrile normalized by mass. The higher the value, the higher the absorption in the visible light range. The first three initiators undergo unimolecular bond cleavage upon irradiation. The last three initiators require a co-initiator, such as an amine, to undergo a bimolecular reaction. The initiators (and EDMAB amine if required) were added to the resin. Samples were coated on a white mixing pad, evaporated for greater than 60 seconds, and irradiated at 500 mW/cm^2 using a Bisco VIP light curing system. Samples were irradiated for 5 seconds, 10 seconds, 30 seconds, and 10 seconds in the absence of air. The “no air” cure was performed between two Mylar slips, each 0.25 mm thick. The actual concentration of initiator in the resin was double that shown in the table due to the evaporation of the acetone.
row,SMILES,Absorbance × 10^−3
1,"CC12CCC(C(=O)C1=O)C2(C)C (stereo not drawn) [CQ, camphorquinone]",11 × 10^−3
2,"Cc1cc(C)c(C(=O)P(=O)(C(=O)c2c(C)cc(C)cc2C)c2ccccc2)c(C)c1 [Composition 819, bis(2,4,6-trimethylbenzoyl)-phenylphosphineoxide]",23 × 10^−3
3,"CCCCOc1ccc2cc3cc(I)c(=O)c(I)c-3oc2c1 [HNu, 5,7-diiodo-3-butoxy-6-fluorone]",2960 × 10^−3
4,"O=C1C(=O)c2ccccc2-c2ccccc21 [PAQ, phenanthrenequinone]",466 × 10^−3
5,"Cc1cc(C)c(C(=O)P(=O)(c2ccccc2)c2ccccc2)c(C)c1 [TPO, 2,4,6-trimethylbenzoyl-diphenylphosphinate]",6 × 10^−3
6,"CCOP(=O)(C(=O)c1c(C)cc(C)cc1C)c1ccccc1 (stereo not drawn) [TPOL, ethyl-2,4,6-trimethylbenzoyl-phenylphosphinate]",4 × 10^−3
